Reference: patent publication US20030225125A1, “IL-8 receptor antagonists” (SmithKline Beecham Corporation, priority 1999, published 2003)

Target: T1, recombinant human IL-8 type β receptor (Type II, permissive receptor) (Homo sapiens, UniProt P25025)
T1 construct: expressed in transfected cells; host or cells: Chinese hamster ovary (CHO) cells; membrane preparation
T1 sequence (P25025 1-360): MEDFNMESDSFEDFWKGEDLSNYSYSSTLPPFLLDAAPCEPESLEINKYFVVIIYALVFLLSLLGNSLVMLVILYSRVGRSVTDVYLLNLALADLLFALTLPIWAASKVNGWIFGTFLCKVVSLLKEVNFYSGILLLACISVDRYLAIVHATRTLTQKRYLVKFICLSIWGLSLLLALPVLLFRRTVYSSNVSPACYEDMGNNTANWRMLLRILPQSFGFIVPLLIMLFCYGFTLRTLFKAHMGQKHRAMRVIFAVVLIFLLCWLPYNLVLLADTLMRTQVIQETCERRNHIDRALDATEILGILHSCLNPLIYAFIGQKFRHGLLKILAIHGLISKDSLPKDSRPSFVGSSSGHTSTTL
Assay: IL-8 receptor binding assay, permissive model (125I IL-8 / 125I Gro-α, CHO membranes)
Details: recombinant receptor expressed in Chinese hamster ovary cell membranes, compound 0.01 nM to 100 uM
Experimental: The IL-8, and GRO-α chemokine inhibitory effects of compounds of the present invention were determined by the following in vitro assay:
[^125I] IL-8 (human recombinant) was obtained from Amersham Corp., Arlington Heights, Ill., with specific activity 2000 Ci/mmol. GRO-α was obtained from NEN-New England Nuclear. All other chemicals were of analytical grade. High levels of recombinant human IL-8 type α and β receptors were individually expressed in Chinese hamster ovary cells as described previously (Holmes, et al., Science, 1991, 253, 1278). The Chinese hamster ovary membranes were homogenized according to a previously described protocol (Haour, et al., J Biol Chem., 249 pp 2195-2205 (1974)). Except that the homogenization buffer was changed to 10 mM Tris-HCL, 1 mM MgS04, 0.5 mM EDTA (ethylene-diaminetetra-acetic acid), 1 mMPMSF (α-toluenesulphonyl fluoride), 0.5 mg/L Leupeptin, pH 7.5. Membrane protein concentration was determined using Pierce Co. micro-assay kit using bovine serum albumin as a standard. All assays were performed in a 96-well micro plate format. […] The filter was then dried and counted on the Betaplate liquid scintillation counter. […]

N-(2,4-Dichloro-3-carboxy)-N′-(2,3-dichlorophenyl)urea
inhibition in the permissive models for IL-8 receptor inhibition: inactive
